# Experimental data reported in article PMC10794144, “A novel antibiotic class targeting the lipopolysaccharide transporter” (Nature, 2024).
# Experiments:
# A. baumannii [1] = experiment: Neutropaenic mouse thigh infection model; assay type: in vivo; settings: 24 h
# Procedure: An intramuscular inoculation of a bacterial suspension of approximately 10^6 CFU per thigh was used to induce the infection. Treatment started 2 h after infection. […] In the pneumonia model, an intratracheal inoculation of approximately 10^7 CFU per lung was used to induce the infection. Treatment started 2 h after infection. […] Standard of care antibiotic was tested at a single dose in both infection models. GraphPad Prism 8 was used for graphical presentation and to analyse data.
# A. baumannii ACC01073 = experiment: Neutropaenic mouse lung infection (pneumonia) model; assay type: in vivo; settings: 120 mg/kg/day q12h
# Procedure: An intramuscular inoculation of a bacterial suspension of approximately 10^6 CFU per thigh was used to induce the infection. Treatment started 2 h after infection. […] Thigh bacterial burden was determined after 24 h of treatment. In the pneumonia model, an intratracheal inoculation of approximately 10^7 CFU per lung was used to induce the infection. Treatment started 2 h after infection. […] Lung bacterial burden was determined after 24 h treatment. Standard of care antibiotic was tested at a single dose in both infection models. GraphPad Prism 8 was used for graphical presentation and to analyse data.
# A. baumannii [2] = experiment: microbe, parasite or virus in culture; settings: CAMHB; for MIC: MCPs read at 80% inhibition
# Procedure: MIC determinations were performed using the broth microdilution method and in line with CLSI guidelines M07 and M100 (refs. [37],[38]). Bacterial inocula were prepared by diluting a 0.5 McFarland suspension in CAMHB or lysogeny broth (LB) specifically for A. baylyi isolates. […] MIC values of all of the tested antibiotics were read as the lowest compound concentration inhibiting bacterial growth by naked eye or beyond which the OD600 ceased to decrease.
compound,measurement,setting,value
C[C@@H](O)[C@H]1C(=O)N2C(C(=O)O)=C(S[C@@H]3CN[C@H](C(=O)N(C)C)C3)[C@H](C)[C@H]12 [MRP],"log CFU/thigh, average","A. baumannii [1]; A. baumannii ACC00535 (APV00535), neutropenic mice, MERO 100 mg/kg, average of 8 samples",8.52 log CFU/thigh
same,delta 2 hr; Δ log (vs. veh 2hrs),"A. baumannii [1]; A. baumannii ACC00535 (APV00535), neutropenic mice, MERO 100 mg/kg, change of average log CFU/thigh vs start of therapy (2 h)",2.37
"CN(C)c1cc(NC(=O)CNC(C)(C)C)c(O)c2c1C[C@H]1C[C@H]3[C@H](N(C)C)C(O)=C(C(N)=O)C(=O)[C@@]3(O)C(O)=C1C2=O [tigecycline, reference compound]",ΔLog CFU/lungs vs A/0h,A. baumannii ACC01073,0.70
same,"CFU/lungs, average",A. baumannii ACC01073; n = 6,4.23E+08
same,"Log CFU/lungs, average (bacterial load)",A. baumannii ACC01073; n = 6,8.39
same,MIC90,"A. baumannii [2]; Acinetobacter baumannii, 129 clinical isolates",8 µg/mL
same,MIC,"A. baumannii [2]; Acinetobacter baumannii, ACC00445",2 µg/mL
same,MIC,"A. baumannii [2]; Acinetobacter baumannii, ACC00535",0.5 µg/mL
same,MIC,"A. baumannii [2]; Acinetobacter baumannii, ACC01073",4 µg/mL
same,MIC,"A. baumannii [2]; Acinetobacter baumannii, ACC01077",2 µg/mL
same,MIC,"A. baumannii [2]; Acinetobacter baumannii, ACC01085 / AR0307",4 µg/mL
same,MIC,"A. baumannii [2]; Acinetobacter baumannii, ATCC17978, ATCC 17978",0.5 µg/mL
same,MIC,"A. baumannii [2]; Acinetobacter baumannii, ATCC19606, ATCC 19606",1 µg/mL
same,MIC,"A. baumannii [2]; Acinetobacter baumannii, ATCCBAA747, ATCC BAA-747",0.25 µg/mL
same,MIC,"A. baumannii [2]; Acinetobacter baumannii, ROB08701",1 µg/mL
same,MIC,"A. baumannii [2]; Acinetobacter baumannii, ROB08702",4 µg/mL
same,MIC,"A. baumannii [2]; Acinetobacter baumannii, ROB08703",16 µg/mL
same,MIC,"A. baumannii [2]; Acinetobacter baumannii, ROB08704",0.5 µg/mL
same,MIC,"A. baumannii [2]; Acinetobacter baumannii, ROB08705",1 µg/mL
same,MIC,"A. baumannii [2]; Acinetobacter baumannii, ROB08706",8 µg/mL
same,MIC,"A. baumannii [2]; Acinetobacter baumannii, ROB08707",0.5 µg/mL
same,MIC,"A. baumannii [2]; Acinetobacter baumannii, ROB08708",1 µg/mL
same,MIC,"A. baumannii [2]; Acinetobacter baumannii, ROB08709",1 µg/mL
same,MIC,"A. baumannii [2]; Acinetobacter baumannii, ROB08710",1 µg/mL
colistin [reference compound],Bacterial Load (average),"A. baumannii [1]; A. baumannii ACC01085, neutropenic mice, 60 mg/kg/day q8h, summary table, same as average Log CFU/Thigh",3.39
same,MIC,A. baumannii [2]; ACC00445,0.25 µg/mL
same,MIC,A. baumannii [2]; ACC00535,0.5 µg/mL
same,MIC,A. baumannii [2]; ACC01073,>16 µg/mL
same,MIC,A. baumannii [2]; ACC01077,16 µg/mL
same,MIC,A. baumannii [2]; ACC01085 / AR0307,4 µg/mL
same,MIC,A. baumannii [2]; ATCC 17978,0.25 µg/mL
same,MIC,A. baumannii [2]; ATCC 19606,0.5 µg/mL
same,MIC,A. baumannii [2]; ATCC BAA-747,0.5 µg/mL
same,MIC,A. baumannii [2]; ROB08701,1 µg/mL
same,MIC,A. baumannii [2]; ROB08702,2 µg/mL
same,MIC,A. baumannii [2]; ROB08703,0.5 µg/mL
same,MIC,A. baumannii [2]; ROB08704,2 µg/mL
same,MIC,A. baumannii [2]; ROB08705,0.5 µg/mL
same,MIC,A. baumannii [2]; ROB08706,0.25 µg/mL
same,MIC,A. baumannii [2]; ROB08707,2 µg/mL
same,MIC,A. baumannii [2]; ROB08708,0.25 µg/mL
same,MIC,A. baumannii [2]; ROB08709,1 µg/mL
same,MIC,A. baumannii [2]; ROB08710,2 µg/mL
